According to patent US9725465B2, “Biaryl acetamide compounds and methods of use thereof” (Ambit Biosciences Corporation, priority 2013, dated 2017):

Experiments:
[1] = biological target: FLT3 kinase (Homo sapiens (Human), UniProt P36888); assay: Competition binding assay (Kd), FLT3; conditions: competition binding assay
Procedure: A selectivity score (S35) is a quantitative measure of selectivity of a compound against a panel of kinases. […] Percent of control (POC) is calculated by subtracting the signal of the control compound (POC=0) from the signal of the test compound and dividing the outcome by the signal of DMSO (POC=100) minus the signal of the control compound.

[2] = biological target: KIT kinase (Homo sapiens (Human), UniProt P10721); assay: Competition binding assay (Kd), KIT; conditions: competition binding assay
Procedure: In certain embodiments, competition binding assays were performed as described in Fabian et al., Nature Biotechnology 2005, 23, 329-336.
Competition binding assays used herein were developed, validated and performed as described in Fabian et al., Nature Biotechnology 2005, 23, 329-336. Kinases were produced as fusions to T7 phage (See, Fabian et al. or WO04/015142) or alternatively, the kinases were expressed in HEK-293 cells and subsequently tagged with DNA for PCR detection (See, WO08/005,310). […] The liganded beads were blocked with excess biotin and washed with blocking buffer (SeaBlock (Pierce), 1% BSA, 0.05% Tween 20, 1 mM DTT) to remove unbound ligand and to reduce non-specific binding. […] Test compounds were prepared as 100× stocks in DMSO and diluted into the aqueous environment. Kds were determined using an eleven point threefold serial dilutions. DMSO or control compounds were was added to control assays lacking a test compound. […] The kinase concentration in the eluates was measured by quantitative PCR. […]

Sequence of KIT kinase (P10721 26-976): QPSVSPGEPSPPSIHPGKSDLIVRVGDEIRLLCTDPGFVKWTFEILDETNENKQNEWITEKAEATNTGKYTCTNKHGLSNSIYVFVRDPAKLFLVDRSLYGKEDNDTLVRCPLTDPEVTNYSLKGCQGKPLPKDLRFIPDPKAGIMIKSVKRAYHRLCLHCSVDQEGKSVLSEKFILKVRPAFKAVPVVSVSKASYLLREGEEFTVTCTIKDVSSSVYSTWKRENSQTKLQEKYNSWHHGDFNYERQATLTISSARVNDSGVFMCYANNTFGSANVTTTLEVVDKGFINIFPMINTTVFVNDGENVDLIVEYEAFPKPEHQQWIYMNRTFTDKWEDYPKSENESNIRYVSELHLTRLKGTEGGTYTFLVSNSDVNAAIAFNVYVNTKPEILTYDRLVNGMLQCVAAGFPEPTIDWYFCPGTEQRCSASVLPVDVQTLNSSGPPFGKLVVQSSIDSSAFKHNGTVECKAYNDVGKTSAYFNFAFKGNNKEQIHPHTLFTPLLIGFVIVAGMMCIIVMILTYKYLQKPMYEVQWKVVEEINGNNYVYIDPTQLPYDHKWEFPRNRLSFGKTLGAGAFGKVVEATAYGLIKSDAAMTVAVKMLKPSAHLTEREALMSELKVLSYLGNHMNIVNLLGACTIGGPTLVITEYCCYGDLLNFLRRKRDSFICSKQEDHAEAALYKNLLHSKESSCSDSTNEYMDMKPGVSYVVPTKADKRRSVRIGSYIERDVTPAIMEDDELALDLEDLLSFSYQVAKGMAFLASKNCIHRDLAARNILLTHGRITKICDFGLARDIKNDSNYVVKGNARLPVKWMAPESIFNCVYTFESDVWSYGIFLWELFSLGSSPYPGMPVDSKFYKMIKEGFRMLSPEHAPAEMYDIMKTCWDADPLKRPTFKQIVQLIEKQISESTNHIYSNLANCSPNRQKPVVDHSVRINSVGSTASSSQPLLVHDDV
Sequence of FLT3 kinase (P36888 27-993): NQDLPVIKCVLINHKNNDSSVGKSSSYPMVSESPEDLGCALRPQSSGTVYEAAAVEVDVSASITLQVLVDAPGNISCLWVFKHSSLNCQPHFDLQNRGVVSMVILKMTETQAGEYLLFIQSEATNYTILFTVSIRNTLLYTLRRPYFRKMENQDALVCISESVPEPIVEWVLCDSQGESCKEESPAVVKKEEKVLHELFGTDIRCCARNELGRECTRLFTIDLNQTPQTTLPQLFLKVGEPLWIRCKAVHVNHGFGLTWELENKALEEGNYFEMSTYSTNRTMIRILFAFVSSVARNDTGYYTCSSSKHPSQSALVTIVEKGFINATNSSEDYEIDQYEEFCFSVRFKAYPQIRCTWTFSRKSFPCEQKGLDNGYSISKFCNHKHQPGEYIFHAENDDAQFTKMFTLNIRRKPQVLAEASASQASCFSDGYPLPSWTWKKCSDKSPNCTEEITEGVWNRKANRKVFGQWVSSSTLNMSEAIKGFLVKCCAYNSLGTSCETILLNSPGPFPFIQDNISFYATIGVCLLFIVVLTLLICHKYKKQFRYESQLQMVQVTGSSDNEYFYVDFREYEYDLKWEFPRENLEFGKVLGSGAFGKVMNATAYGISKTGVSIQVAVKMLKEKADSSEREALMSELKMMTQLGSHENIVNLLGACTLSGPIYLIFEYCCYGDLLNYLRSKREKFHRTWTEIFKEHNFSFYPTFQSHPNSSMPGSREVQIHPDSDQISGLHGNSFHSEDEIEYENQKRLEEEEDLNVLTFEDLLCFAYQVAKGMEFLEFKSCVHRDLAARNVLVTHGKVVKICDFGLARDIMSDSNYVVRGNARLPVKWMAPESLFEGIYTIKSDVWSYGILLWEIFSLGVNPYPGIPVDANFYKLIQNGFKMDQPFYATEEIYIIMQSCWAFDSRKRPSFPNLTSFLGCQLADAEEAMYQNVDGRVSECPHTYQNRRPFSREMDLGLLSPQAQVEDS

With `COc1cc2ncc(-c3ccc(CC(=O)Nc4cc(C(C)(C)C(F)(F)F)on4)c(F)c3)cc2cc1OCCN1CC[C@H](O)[C@@H](F)C1` (stereo in doubt) [Example 87, 2-(2-Fluoro-4-{6-[2-(3-fluoro-4-hydroxy-piperidin-1-yl)-ethoxy]-7-methoxy-quinolin-3-yl}-phenyl)-N-[5-(2,2,2-trifluoro-1,1-dimethyl-ethyl)-isoxazol-3-yl]-acetamide] the Kd [1] was under 5 nM and the Kd [2] was under 5 nM.

With `Nc1nc2ccccc2nc1-c1ccc(CC(=O)Nc2cc(C3(C(F)(F)F)CC3)on2)cc1` [Example 7, 2-(4-(3-aminoquinoxalin-2-yl)phenyl)-N-(5-(1-(trifluoromethyl)cyclopropyl)isoxazol-3-yl)acetamide] the Kd [1] was under 5 nM and the Kd [2] was under 5 nM.

Compound `Cn1ccc2ncc(-c3ccc(CC(=O)Nc4cc(C5(C(F)(F)F)CC5)on4)cc3)nc21` [Example 9, 2-(4-(5-methyl-5H-pyrrolo[2,3-b]pyrazin-3-yl)phenyl)-N-(5-(1-(trifluoromethyl)cyclopropyl)isoxazol-3-yl)acetamide] has a Kd [1] of under 5 nM and a Kd [2] of under 5 nM.

For `O=C(Cc1ccc(-c2cnc3ccsc3c2)cc1)Nc1cc(C2(C(F)(F)F)CC2)on1` [Example 10, 2-(4-(thieno[3,2-b]pyridin-6-yl)phenyl)-N-(5-(1-(trifluoromethyl)cyclopropyl)isoxazol-3-yl)acetamide], the Kd [1] was under 5 nM and the Kd [2] was under 5 nM.

Compound `O=C(Cc1ccc(-c2cnc3cccnc3c2)cc1)Nc1cc(C2(C(F)(F)F)CC2)on1` [Example 11, 2-(4-(1,5-naphthyridin-3-yl)phenyl)-N-(5-(1-(trifluoromethyl)cyclopropyl)isoxazol-3-yl)acetamide] has a Kd [1] of under 5 nM and a Kd [2] of under 5 nM.

Work on `O=C(Cc1ccc(-c2cnc3ccncc3c2)cc1)Nc1cc(C2(C(F)(F)F)CC2)on1` [Example 12, 2-(4-(1,6-naphthyridin-3-yl)phenyl)-N-(5-(1-(trifluoromethyl)cyclopropyl)isoxazol-3-yl)acetamide] yielded a Kd [1] of under 5 nM and a Kd [2] of under 5 nM.

Work on `COc1cc(OC)c2cc(-c3ccc(CC(=O)Nc4cc(C5(C(F)(F)F)CC5)on4)cc3)cnc2c1` [Example 13, 2-(4-(5,7-dimethoxyquinolin-3-yl)phenyl)-N-(5-(1-(trifluoromethyl)cyclopropyl)isoxazol-3-yl)acetamide] yielded a Kd [1] of under 5 nM and a Kd [2] of 5 to 20 nM.

`O=C(Cc1ccc(-c2cnc3[nH]cnc3n2)cc1)Nc1cc(C2(C(F)(F)F)CC2)on1` [Example 14, 2-(4-(1H-imidazo[4,5-b]pyrazin-5-yl)phenyl)-N-(5-(1-(trifluoromethyl)cyclopropyl)isoxazol-3-yl)acetamide] showed a Kd [1] of under 5 nM and a Kd [2] of under 5 nM.

With `COc1cc2nc(-c3ccc(CC(=O)Nc4cc(C5(C(F)(F)F)CC5)on4)c(F)c3)cnc2cc1OCCN1CCN(C)CC1` [Example 81, 2-(2-fluoro-4-(7-methoxy-6-(2-(4-methylpiperazin-1-yl)ethoxy)quinoxalin-2-yl)phenyl)-N-(5-(1-(trifluoromethyl)cyclopropyl)isoxazol-3-yl)acetamide] the Kd [1] was under 5 nM and the Kd [2] was under 5 nM.

For `COc1cc2nc(-c3ccc(CC(=O)Nc4cc(C5(C(F)(F)F)CC5)on4)c(F)c3)cnc2cc1OCCN1CCC(F)(F)C1` [Example 82, 2-(4-(6-(2-(3,3-difluoropyrrolidin-1-yl)ethoxy)-7-methoxyquinoxalin-2-yl)-2-fluorophenyl)-N-(5-(1-(trifluoromethyl)cyclopropyl)isoxazol-3-yl)acetamide], the Kd [1] was under 5 nM and the Kd [2] was under 5 nM.

Compound `COc1cc2nc(-c3ccc(CC(=O)Nc4cc(C5(C(F)(F)F)CC5)on4)c(F)c3)cnc2cc1Br` [Example 83, 2-(4-(6-bromo-7-methoxyquinoxalin-2-yl)-2-fluorophenyl)-N-(5-(1-(trifluoromethyl)cyclopropyl)isoxazol-3-yl)acetamide] has a Kd [1] of under 5 nM and a Kd [2] of under 5 nM.

`COc1cc2nc(-c3ccc(CC(=O)Nc4cc(C5(C(F)(F)F)CC5)on4)c(F)c3)cnc2cc1CC(O)CO` (centres unmarked) [Example 84, 2-(4-(6-(2,3-dihydroxypropyl)-7-methoxyquinoxalin-2-yl)-2-fluorophenyl)-N-(5-(1-(trifluoromethyl)cyclopropyl)isoxazol-3-yl)acetamide] was tested, and the Kd [1] was under 5 nM and the Kd [2] was under 5 nM.

In the case of `COc1cc2nc(-c3ccc(CC(=O)Nc4cc(C5(C(F)(F)F)CC5)on4)c(F)c3)cnc2cc1NCCN1CCOCC1` [Example 85, 2-(2-fluoro-4-(7-methoxy-6-((2-morpholinoethyl)amino)quinoxalin-2-yl)phenyl)-N-(5-(1-(trifluoromethyl)cyclopropyl)isoxazol-3-yl)acetamide], the Kd [1] is reported as under 5 nM and the Kd [2] is reported as under 5 nM.

Work on `COc1cc2nc(-c3ccc(CC(=O)Nc4cc(C(C)(C)C)on4)c(F)c3)cnc2cc1OCCN1CCOCC1` [Example 92, N-(5-(tert-butyl)isoxazol-3-yl)-2-(2-fluoro-4-(7-methoxy-6-(2-morpholinoethoxy)quinoxalin-2-yl)phenyl)acetamide] yielded a Kd [2] of under 5 nM.

For `COc1cc2nc(-c3ccc(CC(=O)Nc4cc(C(C)(C)C(F)(F)F)on4)cc3)cnc2cc1OCCN1CCOCC1` [Example 93, 2-(4-(7-methoxy-6-(2-morpholinoethoxy)quinoxalin-2-yl)phenyl)-N-(5-(1,1,1-trifluoro-2-methylpropan-2-yl)isoxazol-3-yl)acetamide], the Kd [1] was under 5 nM and the Kd [2] was under 5 nM.

Compound `COc1cc2nc(-c3ccc(CC(=O)Nc4cc(C5(C(F)(F)F)CC5)on4)c(F)c3)cnc2cc1OCCN1CCOCC1(C)C` [Example 96, 2-(4-(6-(2-(3,3-dimethylmorpholino)ethoxy)-7-methoxyquinoxalin-2-yl)-2-fluorophenyl)-N-(5-(1-(trifluoromethyl)cyclopropyl)isoxazol-3-yl)acetamide] has a Kd [1] of under 5 nM and a Kd [2] of under 5 nM.

`CCN1CCN(CCOc2cc3ncc(-c4ccc(CC(=O)Nc5cc(C6(C(F)(F)F)CC6)on5)c(F)c4)nc3cc2OC)CC1` [Example 105, 2-[4-[6-[2-(4-ethylpiperazin-1-yl)ethoxy]-7-methoxy-quinoxalin-2-yl]-2-fluoro-phenyl]-N-[5-[1-(trifluoromethyl)cyclo-propyl]isoxazol-3-yl]acetamide] gave a Kd [1] of under 5 nM and a Kd [2] of under 5 nM.

For `COc1cc2nc(-c3ccc(CC(=O)Nc4cc(C(C)(C)C(F)(F)F)on4)c(F)c3)cnc2cc1OCCN1CCOCC1` [Example 171, 2-[2-fluoro-4-[7-methoxy-6-(2-morpholino-ethoxy)quinoxalin-2-yl]phenyl]-N-[5-(2,2,2-trifluoro-1,1-dimethyl-ethyl)isoxazol-3-yl]acetamide], the Kd [2] was under 5 nM.

`COc1cc2ncc(-c3ccc(CC(=O)Nc4cc(C5(C(F)(F)F)CC5)nn4C)c(F)c3)nc2cc1OC` [Example 172, 2-[4-(6,7-dimethoxyquinoxalin-2-yl)-2-fluoro-phenyl]-N-[2-methyl-5-[1-(trifluoro-methyl)cyclopropyl]pyrazol-3-yl]acetamide] showed a Kd [1] of under 5 nM and a Kd [2] of under 5 nM.

`COc1cc2ncc(-c3ccc(CC(=O)Nc4cc(C5(C(F)(F)F)CC5)nn4C(C)(C)C)c(F)c3)nc2cc1OC` [Example 173, N-[2-tert-butyl-5-[1-(trifluoromethyl)cyclo-propyl]pyrazol-3-yl]-2-[4-(6,7-dimethoxy-quinoxalin-2-yl)-2-fluoro-phenyl]acetamide] was tested, and the Kd [1] was 5 to 20 nM and the Kd [2] was over 50 nM.

For `COc1cc2nc(-c3ccc(CC(=O)Nc4cc(C5(C(F)(F)F)CC5)on4)c(F)c3)cnc2cc1OCCN1CC(C)OC(C)C1` (centres unmarked) [Example 174, 2-[4-[6-[2-(2,6-dimethylmorpholin-4-yl)ethoxy]-7-methoxy-quinoxalin-2-yl]-2-fluoro-phenyl]-N-[5-[1-(trifluoro-methyl)cyclo-propyl]isoxazol-3-yl]acetamide], the Kd [1] was under 5 nM and the Kd [2] was under 5 nM.

`CNCCOc1cc2ncc(-c3ccc(CC(=O)Nc4cc(C5(C(F)(F)F)CC5)on4)c(F)c3)nc2cc1OC` [Example 175, 2-[2-fluoro-4-[7-methoxy-6-[2-(methyl-amino)ethoxy]quinoxalin-2-yl]phenyl]-N-[5-[1-(trifluoro-methyl)cyclo-propyl]isoxazol-3-yl]acetamide] showed a Kd [1] of under 5 nM and a Kd [2] of under 5 nM.

Compound `COc1cc2nc(-c3ccc(CC(=O)Nc4cc(C5(C(F)(F)F)CC5)on4)c(F)c3)cnc2cc1OCCN(C)C(C)=O` [Example 176, 2-[4-[6-[2-[acetyl(methyl)amino]ethoxy]-7-methoxy-quinoxalin-2-yl]-2-fluoro-phenyl]-N-[5-[1-(trifluoromethyl)cyclo-propyl]isoxazol-3-yl]acetamide] has a Kd [1] of under 5 nM and a Kd [2] of under 5 nM.

For `COCCOc1cc2cc(-c3ccc(CC(=O)Nc4cc(C(C)(C)C(F)(F)F)on4)c(F)c3)cnc2cc1OC` [Example 177, 2-[2-fluoro-4-[7-methoxy-6-(2-methoxyethoxy)-3-quinolyl]phenyl]-N-[5-(2,2,2-trifluoro-1,1-dimethyl-ethyl)isoxazol-3-yl]acetamide], the Kd [1] was under 5 nM and the Kd [2] was under 5 nM.

Work on `COc1cc2ncc(-c3ccc(CC(=O)Nc4cc(C(C)(C)C(F)(F)F)on4)c(F)c3)cc2cc1OCCO` [Example 178, 2-[2-fluoro-4-[6-(2-hydroxyethoxy)-7-methoxy-3-quinolyl]phenyl]-N-[5-(2,2,2-trifluoro-1,1-dimethyl-ethyl)isoxazol-3-yl]acetamide] yielded a Kd [1] of under 5 nM and a Kd [2] of under 5 nM.

With `COc1cc2ncc(-c3ccc(CC(=O)Nc4cc(C5(C(F)(F)F)CC5)on4)c(F)c3)cc2cc1OCCO` [Example 179, 2-[2-fluoro-4-[6-(2-hydroxyethoxy)-7-methoxy-3-quinolyl]phenyl]-N-[5-[1-(trifluoromethyl)cyclo-propyl]isoxazol-3-yl]acetamide] the Kd [1] was under 5 nM and the Kd [2] was under 5 nM.
